# Laboratory results from the supplement of paper PMC10307832.
# Experiments:
# Experiment in all cases: relative viability (nuclei count vs DMSO), 5 days (fraction); higher = more cells survive
# [1] = compound: CC1=C(C=C(C=C1)NC(=O)C2=CC(=CC=C2)C(C)(C)C#N)NC3=CC4=C(C=C3)N=CN(C4=O)C [AZ628]
# In short: (§1)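 On vehicle-anchored 1536-well plates, lung cancer cell lines held overnight at 37 °C were pinned with five library-drug doses (not always all listed) spaced by √10. With no medium change over 5 days, they were then fixed, permeabilised and Hoechst-stained in one step and imaged at 4×. MetaXpress counted nuclei, and viability is the median across plates of treated-well over vehicle-well nuclei. Acceptance needed control CV below 25% and at least one doubling.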
# [2] = compound: C[As](C)SC[C@H](NC(=O)CC[C@H](N)C(=O)O)C(=O)NCC(=O)O [Darinaparsin]
# In short: as §1
# [3] = compound: C1CC2=C(C1)C=C(C=C2)OC3=NC(=C4C(=N3)N(C=N4)CC5=CC=C(C=C5)C6=CC=CC=C6)N[C@@H](CC7=CC=CC=C7)CO [QS11]
# In short: as §1
Cell Line,relative viability ([1]; 0.08 µM),relative viability ([1]; 0.253 µM),relative viability ([1]; 0.8 µM),relative viability ([1]; 2.53 µM),relative viability ([1]; 8 µM),relative viability ([2]; 0.08 µM),relative viability ([2]; 0.8 µM),relative viability ([2]; 2.53 µM),relative viability ([2]; 8 µM),relative viability ([3]; 0.08 µM),relative viability ([3]; 0.253 µM),relative viability ([3]; 0.8 µM),relative viability ([3]; 2.53 µM),relative viability ([3]; 8 µM)
NCI-H2405,0.724,0.476,0.612,0.67,0.558,1.09,0.926,0.975,1.04,0.976,0.992,0.875,1.09,1.07
NCI-H2342,1.1,0.898,1.02,0.935,0.995,0.953,0.888,0.939,1.08,0.888,1.02,1.07,0.998,0.998
HOP-62,1.07,1.07,0.937,1.09,0.573,1.07,1.08,0.95,1.08,1.06,1.09,0.867,0.922,0.88
NCI-H1651,0.986,1.01,0.986,1.08,1.12,1.15,1,0.942,1.18,0.906,1.01,0.857,0.988,0.899
NCI-H2085,1.08,0.98,1,1.03,0.882,0.998,0.985,0.958,0.999,0.946,0.953,0.968,1,1.09
NCI-H2023,1.11,1.03,0.974,0.915,0.674,1.08,0.952,0.992,1.23,1.04,0.987,0.895,1.09,0.805
UMC-11,1.07,0.974,0.992,0.943,1.08,0.997,0.949,0.926,1.03,0.952,0.979,0.992,1.17,1.22
NCI-H23,1.01,0.838,0.721,0.799,0.543,1.06,0.843,1.11,1.14,0.995,0.85,0.832,0.832,0.831
NCI-H1355,1.02,0.975,0.956,0.938,0.781,1.06,0.939,0.865,1.1,0.933,0.918,0.769,0.981,0.986
NCI-H1734,1.08,0.974,0.919,0.913,0.514,1.06,0.993,0.971,1.16,0.99,1.01,0.945,0.874,0.725
EPLC-272H,0.955,0.848,0.971,0.953,0.628,0.8,0.841,0.902,0.992,0.698,1.02,0.949,0.995,0.908
LXF-289,1,0.986,0.906,0.98,0.722,1.04,0.994,0.941,1.13,1,1.04,0.732,0.902,0.809
NCI-H520,1.06,0.994,0.937,0.937,0.878,1.12,0.947,0.833,1.09,0.864,1.04,1.12,1.11,1.14
NCI-H1395,1.02,0.794,0.92,0.92,0.832,0.995,0.883,0.815,0.938,0.833,0.976,1,0.881,0.986
H3255,0.996,0.908,0.975,1.02,0.693,1.02,1.01,0.896,1.01,0.947,1.01,,1.01,1.08
NCI-H2170,1.01,0.964,0.936,1.02,0.983,1.11,0.978,0.845,1.18,1.04,1,0.728,1.05,1.2
NCI-H460,0.977,0.996,0.908,1.04,0.673,1.1,1,0.997,1.35,1.05,1.02,0.777,0.96,0.796
PC-14,1.07,0.938,0.907,0.959,0.674,1.05,0.97,1.02,1.22,0.821,1.06,0.888,1.04,0.895
HCC-15,1.02,0.924,0.858,0.86,0.56,1.18,1,0.992,1.14,1.02,1.06,0.693,0.971,0.915
NCI-H1437,0.988,0.938,0.858,1.01,1.01,1.08,1.02,0.973,1.21,0.965,1.02,0.752,0.901,0.929
COR-L23,1.08,1.1,0.957,1.12,0.614,1.11,0.995,0.96,1.37,1.02,1.01,0.827,0.918,0.648
NCI-H1975,0.927,0.85,0.889,0.94,0.768,0.992,1.01,0.906,1.05,0.954,0.881,1.04,1.23,1.34
NCI-H522,0.922,0.827,0.755,1.11,0.815,0.969,0.992,0.972,1.07,0.872,0.96,0.934,0.944,0.875
NCI-H1666,0.965,0.826,0.885,0.813,0.901,1.04,0.948,1.24,1.05,0.935,0.984,0.776,0.793,0.667
